Test results reported in patent publication US6683103B2, “Sulfonamides for treatment of endothelin-mediated disorders” (Texas Biotechnology Corporation, priority 1997, dated 2004).
Read-outs that look alike come from different tables or passages of the source. Marks after values point to notes of the source that are not given here. Each block holds one compound with its values, some of them ahead of it.

Columns and labels:
Papp (Table 4) = assay type: in vitro ADME
[1] = system: Pulmonary Hypertension model; test: Pulmonary hypertension model, in vivo efficacy; parameters: species or system rat; key to in vivo Efficacy: ++ effective at 5 mg/kg; − no effect at 5 mg/kg; + effective at 15 mg/kg
Experimental: As used herein, efficacy refers to the maximal effect that can be produced by a compound. Efficacy can be determined by methods known to those of skill in the art. For example, it can be determined by the properties of the compound and its receptor-effector system and is reflected in the plateau of the concentration-effect curve. In vivo efficacy refers to efficacy which is determined in an animal model. For example, in vivo efficacy of the compounds described herein can be determined by amelioration of hypoxia-induced pulmonary hypertension in rat. In this context, in vivo efficacy refers to the ability of a compound to restore an elevated pulmonary artery pressure to a normal value. […] J. Physiol. […] The in vivo activity was measured in a pulmonary hypertension model and is a measure of the activity of the compounds at selected dosages.

human ETA receptors = biological target: T1, human ETA receptors (Homo sapiens, UniProt P25101); test: Binding Test #1: inhibition of 125I-ET-1 binding to ETA receptors (TE 671 cell membranes); conditions: for IC50: read-out: ETA
T1 construct: endogenous in cells; host or cells: TE 671 cells (ATCC HTB 139)
T1 sequence (P25101 21-427): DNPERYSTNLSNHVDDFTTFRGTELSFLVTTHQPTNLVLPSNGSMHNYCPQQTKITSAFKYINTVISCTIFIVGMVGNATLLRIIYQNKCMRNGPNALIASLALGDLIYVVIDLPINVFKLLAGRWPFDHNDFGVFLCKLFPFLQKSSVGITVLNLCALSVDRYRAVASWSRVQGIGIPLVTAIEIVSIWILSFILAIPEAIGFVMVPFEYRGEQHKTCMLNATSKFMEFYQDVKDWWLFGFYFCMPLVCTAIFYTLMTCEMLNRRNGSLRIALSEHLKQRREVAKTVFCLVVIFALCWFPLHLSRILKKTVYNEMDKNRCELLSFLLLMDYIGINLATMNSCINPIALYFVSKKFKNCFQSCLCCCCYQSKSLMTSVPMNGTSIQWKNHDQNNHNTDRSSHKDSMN
Procedure, shortened: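 Membranes from TE 671 cells (up to 8 μg protein) incubated with ¹²⁵I-ET-1 and compound (1 nM–100 μM final) in 30 mM HEPES pH 7.4, 150 mM NaCl, 5 mM MgCl2, 0.5% bacitracin, 16–18 h at 4 °C or alternatively at 24 °C. Nonspecific binding with 80 nM ET-1; bound pellet gamma-counted, % inhibition calculated, usually triplicate.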

[2] = Oral half-life and peak plasma levels in rat; assay type: in vivo
Text: As used herein, bioavailability refers to the rate and extent of absorption. Methods for determining bioavailability are well known to those of skill in the art. For example, bioavailability of any of the compounds described herein can be determined empirically by administration of the compound to an animal, followed by taking blood samples over time and measuring the blood concentration of the compound. In vivo half life (t½) is defined as the time it takes for the concentration of the compound in the blood to be reduced by one-half. Estimations of the area under the curve for intravenous administration can be used to estimate the area under the curve for oral administration, yielding bioavailability data. See, e.q., Milo Gibal (1991) Biopharmaceutics and Pharmacology, 4th edition (Lea and Sediger).
Table 4 lists oral half-life, bioavailability, and in vivo activity of selected exemplary compounds. The in vivo activity was measured in a pulmonary hypertension model and is a measure of the activity of the compounds at selected dosages.

[3] = system: DOCA-salt hypertensive rat; test: Deoxycorticosterone acetate (DOCA)-salt hypertensive rat model; assay type: in vivo
Experimental: E. Deoxycorticosterone Acetate (DOCA)-Salt Hypertensive Rat Model for Assessing in vivo Activity of Selected Compounds
Selected compounds disclosed herein have been tested for activity in the deoxycorticosterone acetate (DOCA)-salt hypertensive rat model. To perform these tests, silastic MDX4-4210 elastomer implants containing 47 mg (DOCA) were prepared according to the method of Ornmsbee et al. ((1973) the J. Pharm. Sci. 62:255-257). Briefly, DOCA is incorporated into silicon rubber implants for sustained release. To prepare the implants the DOCA is incorporated into unpolymerized silicone rubber, catalyst is added and the mixture is cast in a hemicylindrical shape.
Sprague Dawley rats (7-8 weeks old) were unilaterally nephrectomized under ketamine anesthesia and a DOCA-implant was placed on the left lateral dorsal abdomen of the animal. The rats were allowed to recover for three weeks. During recovery they were permitted free access to normal rat chow and 0.9% NaCl drinking solution in place of drinking water. The rats develop hypertension within 3 weeks.
All animals were used in the tests between 21 and 30 days post surgery. The mean arterial blood pressure in these animals ranged from 165-200 mm Hg.
On the day of experimentation, catheters were inserted under brevital anesthesia into the right femoral artery for measurement of blood pressure, and into the right femoral vein for administration of a selected compound. The animals were placed in a restrainer and allowed to recover for a minimum of 60 min or until a steady mean arterial blood pressure was recorded. At that time, the selected compound or control vehicle was administered either intravenously, as a 60 minute infusion, or orally by oral gavage. Blood pressure was recorded continuously for a further 10 hrs.

human ETB receptor = biological target: T2, human ETB receptor (Homo sapiens, UniProt P24530); test: Binding Test #2: inhibition of 125I-ET-1 binding to ETB receptors (transfected COS7 cell membranes); conditions: Table 1, read-out: ETB
T2 construct: expressed in transfected cells; host or cells: COS7 cells
T2 sequence (P24530 27-442): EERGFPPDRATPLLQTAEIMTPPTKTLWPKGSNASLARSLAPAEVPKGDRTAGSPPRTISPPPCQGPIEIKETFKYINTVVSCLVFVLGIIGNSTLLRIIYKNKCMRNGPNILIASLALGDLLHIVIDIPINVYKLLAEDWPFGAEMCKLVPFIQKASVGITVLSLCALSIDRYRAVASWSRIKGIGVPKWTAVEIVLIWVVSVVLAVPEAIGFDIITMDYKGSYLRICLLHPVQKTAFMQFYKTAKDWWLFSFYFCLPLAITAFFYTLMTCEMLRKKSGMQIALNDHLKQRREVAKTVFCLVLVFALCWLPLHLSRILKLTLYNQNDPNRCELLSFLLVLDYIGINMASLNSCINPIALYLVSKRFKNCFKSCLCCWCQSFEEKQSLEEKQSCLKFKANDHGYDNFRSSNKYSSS
Procedure, shortened: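 Competition with 125I-ET-1 for binding to membranes from COS7 cells transfected with human ETB receptor, used at 1 μg/50 μl binding buffer. Membranes prepared in HEPES pH 7.4 with aprotinin, including a DNase/MnCl2 step at 37 °C for 30 min.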

[4] = system: ET-1-induced pressor response; test: ET-1-induced pressor responses in conscious, autonomically blocked rats; assay type: in vivo, rat; conditions: in 30 min at dosages as low as 30 mg/kg
Experimental: Animals were placed in a restrainer and allowed to regain consciousness. Thirty minutes later autonomic blockade was administered (atropine methyl nitrate, 3 mg/kg, IV, followed by propranalol, 2 mg/kg, IV). An hour later animals received a bolus injection of vehicle (0.5 ml) followed thirty minutes later by intravenous bolus administration of ET-1 (Control, 1 μg/kg). Following recovery from this challenge, test-compounds were administered by intravenous bolus administration (0.5 ml) and then re-challenged with ET-1 thirty minutes later. Results are expressed as the percent inhibition of the ET-1-induced pressor response after administration of the test compound compared to the pressor response induced by the control ET-1 challenge. In some cases a third ET-1 challenge was administered ninety minutes after administration of the test compound.

ETA receptor = conditions: cited from earlier work
ETB receptors = conditions: tissues in which ETB receptors predominate; cited from earlier work
isolated vascular strips = conditions: contractile agent in isolated vascular strips; cited from earlier work
[5] = Table 1, † incubation at 24° C.

Papp (cell printed as %) (Papp (Table 4)): 40%
ETA/ETB selectivity (human ETA receptors; Table 3): 34000^∥
IC50 (human ETA receptors; Table 3, † incubation at 24° C.): 0.55 nM
Peak Plasma Levels ([2]; in vivo): 57 µg/mL
POt½ in Rat ([2]; oral): 8.6 h
Compound: CC(=O)c1cc(C)cc(C)c1NC(=O)c1sccc1S(=O)(=O)Nc1onc(C)c1Cl [N-(2-acetyl-4,6-dimethylphenyl)-3-(((4-chloro-3-methyl-5-isoxazolyl)amino)sulfonyl)-2-thiophenecarboxamide]
in vivo Efficacy (footnote e) ([1]; 0.3 mg/kg in vivo): ^eeffective at 0.3 mg/kg in vivo
in vivo Efficacy ([1]; Pulmonary Hypertension model): ++^e

IC50 (human ETA receptors; Table 1, incubation at 4° C.): 1.5 ± 1.4 nM
IC50 (human ETA receptors; [5]): 7.4 ± 1.1 nM
IC50 (human ETB receptor; incubation at 4° C.): 324 ± 780 nM
IC50 (human ETB receptor; † incubation at 24° C.): 939 ± 262 nM
Compound: Cc1noc(NS(=O)(=O)c2c(Cc3ccc4c(c3)OCO4)sc3ccccc23)c1Br [N-(4-bromo-3-methyl-5-isoxazolyl)-2-[3,4-(methylenedioxy)benzyl]benzo[b]thiophene-3-sulfonamide]
effect on blood pressure [3]: effective in decreasing blood pressure

Compound: COc1ccc(NC(=O)c2sccc2S(=O)(=O)Nc2onc(C)c2Cl)c(C)c1 [N-(4-chloro-3-methyl-5-isoxazolyl)-2-[4-methoxy-2-methylphenyl)aminocarbonyl]thiophene-3-sulfonamide]
reduction of pressure [4]: about 30%

Compound: Cc1ccc(NC(=O)c2sccc2S(=O)(=O)Nc2onc(C)c2Cl)cc1 [N-(4-chloro-3-methyl-5-isoxazolyl)-2-[(4-tolyl)aminocarbonyl]thiophene-3-sulfonamide]
effect on blood pressure [3]: effective in decreasing blood pressure

Compound: COc1cc(C#N)c(NC(=O)c2sccc2S(=O)(=O)Nc2onc(C)c2Cl)cc1OC [N-(4-chloro-3-methyl-5-isoxazolyl)-2-[{2-cyano-4,5-dimethoxyphenyl)aminocarbonyl]thiophene-3-sulfonamide]
reduction of pressure [4]: about 30%

IC50 (human ETA receptors; [5]): 53 nM
IC50 (human ETB receptor; † incubation at 24° C.): 16000 nM
Compound: Cc1noc(NS(=O)(=O)c2ccsc2CC(O)c2ccc3c(c2)OCO3)c1Cl (stereo not drawn) [N-(4-chloro-3-methyl-5-isoxazolyl)-2-[β-hydroxy(3,4-methylenedioxy)phenylethyl]thiophene-3-sulfonamide]
effect on blood pressure [3]: effective in decreasing blood pressure

Compound: CC(=O)c1cc2c(cc1NC(=O)c1sccc1S(=O)(=O)Nc1onc(C)c1Cl)OCO2 [N-(4-chloro-3-methyl-5-isoxazolyl)-2-{[2-acetyl-4,5-(methylenedioxy)phenyl]aminocarbonyl}thiophene-3-sulfonamide]
IC50 (human ETA receptors; [5]): 10 nM
reduction of pressure [4]: about 30%
IC50 (human ETB receptor; † incubation at 24° C.): 31600 nM

Compound: cyclo(D-Glu-L-Ala-allo-D-lle-L-Leu-D-Trp) [BE-18257B]
IC50 (ETA receptor; aortic smooth muscle): 1400 nM
IC50 (ETA receptor; cultured aortic smooth muscle cells): 500 nM
IC50 (ETA receptor; ventricle membranes): 800 nM
concentration up to which binding is not inhibited (ETB receptors): > 100 µM

Compound: endothelin-1: potent twenty-one amino acid peptide vasoconstrictor
EC50 (isolated vascular strips): 0.4 nM
